Data on five molecules can be found in ChEMBL document CHEMBL1909046, “DrugMatrix in vitro pharmacology data”.

Experiment [1] deals with T1, Cathepsin G (Homo sapiens, UniProt P08311).
T1 sequence (P08311 whole entry): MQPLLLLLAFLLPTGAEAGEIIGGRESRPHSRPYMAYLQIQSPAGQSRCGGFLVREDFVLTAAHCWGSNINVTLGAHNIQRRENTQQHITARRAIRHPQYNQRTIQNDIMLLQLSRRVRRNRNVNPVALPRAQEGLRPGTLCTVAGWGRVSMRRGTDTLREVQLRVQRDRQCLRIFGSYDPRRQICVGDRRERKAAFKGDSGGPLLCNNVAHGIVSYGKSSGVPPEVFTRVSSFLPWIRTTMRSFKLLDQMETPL
Type of experiment: tissue-based. As to conditions: neutrophil.

Experiment [2] addresses 5-hydroxytryptamine receptor 1B (Rattus norvegicus, UniProt P28564). Type of experiment: cell membranes, Wistar, Cerebral cortex, Membrane.
Experiment [3] addresses T2, Alpha-2C adrenergic receptor (Homo sapiens, UniProt P18825).
T2 sequence (P18825 whole entry): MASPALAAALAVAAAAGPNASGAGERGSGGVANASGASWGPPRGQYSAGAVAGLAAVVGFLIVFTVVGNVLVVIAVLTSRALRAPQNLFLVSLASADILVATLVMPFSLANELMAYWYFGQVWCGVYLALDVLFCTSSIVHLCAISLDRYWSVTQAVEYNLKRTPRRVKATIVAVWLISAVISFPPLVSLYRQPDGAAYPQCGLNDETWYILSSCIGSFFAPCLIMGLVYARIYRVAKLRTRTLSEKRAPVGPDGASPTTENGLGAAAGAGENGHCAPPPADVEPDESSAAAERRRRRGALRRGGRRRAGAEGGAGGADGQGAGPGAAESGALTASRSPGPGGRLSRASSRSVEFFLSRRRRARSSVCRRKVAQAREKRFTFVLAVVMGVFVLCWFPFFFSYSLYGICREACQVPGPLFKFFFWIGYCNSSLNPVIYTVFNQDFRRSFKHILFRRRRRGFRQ
Briefly: DRUGMATRIX: Adrenergic Alpha-2C radioligand binding (ligand: [3H] MK-912). Type of experiment: cell membranes, Sf9, Membrane.

Experiment [4] concerns the target 5-hydroxytryptamine receptor 4 (Cavia porcellus, UniProt O70528). Type of experiment: cell membranes, Dunkin-Hartley, Striatum, Membrane. Also: in other assays of this panel Not Active means under 50% inhibition at 10 µM.
Experiment [5] concerns the target T3, Estrogen receptor (Homo sapiens, UniProt P03372). Also: in other assays of this panel Not Active means under 50% inhibition at 10 µM.
T3 sequence (P03372 whole entry): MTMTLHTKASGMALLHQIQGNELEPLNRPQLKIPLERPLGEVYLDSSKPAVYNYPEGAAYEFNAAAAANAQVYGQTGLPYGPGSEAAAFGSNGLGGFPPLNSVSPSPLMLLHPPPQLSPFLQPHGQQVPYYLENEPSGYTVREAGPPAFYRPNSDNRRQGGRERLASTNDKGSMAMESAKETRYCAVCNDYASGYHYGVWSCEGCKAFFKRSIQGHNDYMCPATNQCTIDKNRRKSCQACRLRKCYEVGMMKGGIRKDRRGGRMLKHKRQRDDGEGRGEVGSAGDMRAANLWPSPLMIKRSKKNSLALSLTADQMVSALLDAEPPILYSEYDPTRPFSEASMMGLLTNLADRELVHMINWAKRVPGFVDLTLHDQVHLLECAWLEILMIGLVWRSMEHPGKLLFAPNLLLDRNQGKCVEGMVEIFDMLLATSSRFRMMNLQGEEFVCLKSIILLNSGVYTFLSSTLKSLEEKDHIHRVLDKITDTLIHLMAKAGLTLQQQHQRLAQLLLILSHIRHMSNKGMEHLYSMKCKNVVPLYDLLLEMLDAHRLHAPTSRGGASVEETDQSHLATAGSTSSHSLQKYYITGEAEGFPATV
To be noted: sf9.

Experiment [6] can be described thus: DRUGMATRIX: Glutamate, NMDA, Agonism radioligand binding (ligand: [3H] CGP-39653). The format is cell membranes, Rattus norvegicus, Wistar, Cerebral cortex, Membrane. As to conditions: Not Active = under 50% inhibition at 10 µM.

As usually defined, the IC50 is the concentration that inhibits the measured activity by half. As a reminder, the Ki is a dissociation constant, usually derived from enzyme kinetics or from competition with a known ligand.

Chain of 5-hydroxytryptamine receptor 4 (O70528 whole entry): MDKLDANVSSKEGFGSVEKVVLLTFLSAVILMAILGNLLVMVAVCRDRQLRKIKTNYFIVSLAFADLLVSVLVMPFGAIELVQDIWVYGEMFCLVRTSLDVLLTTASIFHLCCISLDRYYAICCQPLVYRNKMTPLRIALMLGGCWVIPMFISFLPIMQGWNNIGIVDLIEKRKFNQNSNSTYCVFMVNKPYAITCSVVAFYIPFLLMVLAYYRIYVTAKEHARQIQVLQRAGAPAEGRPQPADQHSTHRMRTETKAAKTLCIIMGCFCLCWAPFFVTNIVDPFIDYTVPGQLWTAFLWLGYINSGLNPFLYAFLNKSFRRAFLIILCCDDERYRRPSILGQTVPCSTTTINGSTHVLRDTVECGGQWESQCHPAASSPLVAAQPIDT
Chain of 5-hydroxytryptamine receptor 1B (P28564 whole entry): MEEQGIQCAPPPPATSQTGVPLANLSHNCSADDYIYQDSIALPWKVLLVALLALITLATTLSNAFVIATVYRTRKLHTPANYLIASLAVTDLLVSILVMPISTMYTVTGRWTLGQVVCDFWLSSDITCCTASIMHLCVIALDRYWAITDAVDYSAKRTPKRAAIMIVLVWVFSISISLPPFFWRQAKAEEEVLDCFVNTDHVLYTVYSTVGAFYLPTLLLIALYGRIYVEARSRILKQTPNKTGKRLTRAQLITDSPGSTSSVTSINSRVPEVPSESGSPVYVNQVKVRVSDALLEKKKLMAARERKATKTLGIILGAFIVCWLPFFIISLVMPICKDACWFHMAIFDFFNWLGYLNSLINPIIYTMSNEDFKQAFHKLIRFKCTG

Turning to `CC(C)N1CCN(c2ccc(OCC3COC(Cn4cncn4)(c4ccc(Cl)cc4Cl)O3)cc2)CC1` (centres undefined) [TERCONAZOLE], the IC50 result in experiment [1] was “Not Active”; in experiment [2] (read-out: IC50), 89900 nM; in experiment [3] (read-out: IC50), 418 nM; in experiment [4] (read-out: IC50), 14800 nM; in experiment [5], “Not Active”; in experiment [6], “Not Active”. The Ki in experiment [2] (read-out: Ki) was 40900 nM; in experiment [3] (read-out: Ki), 61 nM; in experiment [4] (read-out: Ki) it was 2460 nM; in experiment [6] it was “Not Active”.
For `CC[C@@H](CO)NC(=O)[C@@H]1C=C2c3cccc4[nH]cc(c34)C[C@H]2N(C)C1` [METHYLERGONOVINE], the IC50 result in experiment [1] was “Not Active”; in experiment [2] (read-out: IC50) it was 15 nM; in experiment [3] (sf9), “Not Active”; in experiment [4] it was “Not Active”; in experiment [5], “Not Active”; in experiment [6], “Not Active”. Besides, the Ki in experiment [2] (read-out: Ki) was 9.26 nM; in experiment [6], “Not Active”.
For SODIUM NITROPRUSSIDE, the IC50 entry in experiment [1], in experiment [2], in experiment [3] (sf9), in experiment [4], in experiment [5] and in experiment [6] was “Not Active” throughout. Also, the Ki entry in experiment [1], in experiment [2], in experiment [3] (sf9), in experiment [4], in experiment [5] and in experiment [6] was “Not Active” in each case.
Consider `Cc1oncc1C(=O)Nc1ccc(C(F)(F)F)cc1` [LEFLUNOMIDE], for which the IC50 entry in experiment [1], in experiment [2], in experiment [3] (sf9), in experiment [4], in experiment [5] and in experiment [6] was “Not Active” throughout. The Ki entry in experiment [6] is “Not Active”.
As for `N#CC(C#N)=Cc1ccc(O)c(O)c1` [TYRPHOSTIN 23], the half-maximal inhibitory concentration (IC50) entry in experiment [1], in experiment [2], in experiment [3] (sf9), in experiment [4], in experiment [5] and in experiment [6] was “Not Active” throughout. Moreover, in experiment [6], the Ki result is recorded as “Not Active”.
